The text below walks through data of ChEMBL document CHEMBL1148380, “Quantitative structure-activity relationships for gammadelta T cell activation by bisphosphonates” (J Med Chem, 2004).

SMILES strings stand for the structures.

Type in all cases: functional, cell-based
Conditions in all cases: Homo sapiens, T-cell

Assay [1] in a line: pIC50 value for stimulation of TNF-alpha release in gamma-delta T cells, using a constrained maximum TNF-alpha release of 2700 pg/mL.
The nature of assay [2]: Inhibitory activity, for stimulation of TNF-alpha release in gamma-delta T cells, using a constrained maximum TNF-alpha release of 2700 pg/mL.
Assay [3] can be described thus: Inhibitory activity, for stimulation of TNF-alpha release in gamma-delta T cells, using individual observed maximum TNF-alpha release.
A short description of assay [4]: pIC50 value for stimulation of TNF-alpha release in gamma-delta T cells, using individual observed maximum TNF-alpha release.

What is called IC50 is the concentration that gives 50% inhibition. A low value points to greater potency in that assay.

As for `O=P(O)(O)C(O)(Cc1cccnc1)P(=O)(O)O` [RISEDRONIC ACID], the IC50 in assay [1] was 6.17 µM; in assay [2], 6.2 µM; in assay [3], 6.9 µM; in assay [4], 6.92 µM.
Turning to `CC(C)(C)c1cccc(NC(P(=O)(O)O)P(=O)(O)O)c1`, the results for the IC50 in assay [1] and in assay [2] were 25100 µM and 25200 µM, respectively.
Consider `Cc1cccc(CC(O)(P(=O)(O)O)P(=O)(O)O)c1`, for which the results for the IC50 in assay [1] and in assay [2] were 8910 µM and 9020 µM, respectively.
`CC(N)CC(O)(P(=O)(O)O)P(=O)(O)O` (stereo not given): the IC50 is 110 µM in assay [1], 110 µM in assay [2], 63 µM in assay [3] and 63.1 µM in assay [4].
As to `O=P(O)(O)C(NC1CCC1)P(=O)(O)O` [(CYCLOBUTYLAMINO)METHYLENEDIPHOSPHONIC ACID], the half-maximal inhibitory concentration (IC50) in assay [1] is 126 µM; in assay [2], 127 µM; in assay [3], 56 µM; in assay [4], 56.2 µM.
Consider `CCN(CC)C(P(=O)(O)O)P(=O)(O)O` [(DIETHYLAMINO)METHYLENEDIPHOSPHONIC ACID], for which the IC50 in assay [1] is 2880 µM; in assay [2], 2910 µM; in assay [3] it was 132 µM; in assay [4], 132 µM.
As to `CC1CCN(C(P(=O)(O)O)P(=O)(O)O)CC1`, the IC50 in assay [1] was 23.4 µM; in assay [2] it was 24 µM.
With `NCCCC(O)(P(=O)(O)O)P(=O)(O)O` [ALENDRONIC ACID], the IC50 in assay [1] was 52.5 µM; in assay [2], 52 µM; in assay [3] it was 53 µM; in assay [4], 53.7 µM.
In the same order, the values of `CCCCNC(P(=O)(O)O)P(=O)(O)O` [(BUTYLAMINO)METHYLENEDIPHOSPHONIC ACID] are 12.9 µM, 13 µM, 10 µM and 10.2 µM.
In the same order, the values of `CCCCCNC(P(=O)(O)O)P(=O)(O)O` [(PENTYLAMINO)METHYLENEDIPHOSPHONIC ACID] are 40.7 µM, 41 µM, 7.8 µM and 7.76 µM.
Consider `O=P(O)(O)C(NCc1ccc(F)cc1)P(=O)(O)O`, for which the IC50 in assay [1] is 63.1 µM; in assay [2], 63 µM.
For `CC(CCCCc1ccccc1)CCC(O)(P(=O)(O)O)P(=O)(O)O` (stereo not given), the IC50 in assay [1] is 16.2 µM; in assay [2] it was 16 µM; in assay [3], 9.9 µM; in assay [4], 10 µM.
Turning to `O=P(O)(O)C(NC1CCCC1)P(=O)(O)O` [(CYCLOPENTYLAMINO)METHYLENEDIPHOSPHONIC ACID], the IC50 was 55 µM in assay [1], 55 µM in assay [2], 25 µM in assay [3] and 25.1 µM in assay [4].
Take `O=P(O)(O)C(NC1CCCCCCC1)P(=O)(O)O` [(CYCLOOCTYLAMINO)METHYLENEDIPHOSPHONIC ACID]: the IC50 in assay [1] was 110 µM; in assay [2], 110 µM; in assay [3] it was 44 µM; in assay [4], 43.7 µM.
Turning to `CC1CCCN(C(P(=O)(O)O)P(=O)(O)O)C1` (stereo not given), the IC50 is 347 µM in assay [1] and 348 µM in assay [2].
Consider `O=P(O)(O)C(O)(Cn1ccnn1)P(=O)(O)O`, for which the IC50 is 2090 µM in assay [1] and 2070 µM in assay [2].
Turning to `O=P(O)(O)C(O)(Cc1ccccn1)P(=O)(O)O`, the IC50 in assay [1] was 5.62 µM; in assay [2], 5.6 µM; in assay [3], 5.7 µM; in assay [4], 5.75 µM.
For the compound `CCC1CCCCN1C(P(=O)(O)O)P(=O)(O)O` (stereo not given), the IC50 in assay [1] and in assay [2] was 1200 µM in each case.
For `Cc1cc(Br)cnc1NC(P(=O)(O)O)P(=O)(O)O`, the IC50 in assay [1] is 72.4 µM; in assay [2], 72 µM.
Consider `O=P(O)(O)C(CNc1ccncc1)P(=O)(O)O`, for which the IC50 in assay [1] is 16.2 µM; in assay [2] it was 16 µM; in assay [3] it was 9.9 µM; in assay [4], 10 µM.
In the same order, the values of `O=P(O)(O)C(O)(CCNCCCOc1ccccc1)P(=O)(O)O` are 141 µM, 143 µM, 98 µM and 97.7 µM.
Turning to `CCCN(CCC)C(P(=O)(O)O)P(=O)(O)O` [(DIPROPYLAMINO)METHYLENEDIPHOSPHONIC ACID], the IC50 in assay [1] was 83.2 µM; in assay [2], 83 µM; in assay [3] it was 41 µM; in assay [4] it was 40.7 µM.
In the same order, the values of `Cc1ccnc(NC(P(=O)(O)O)P(=O)(O)O)c1` are 14.5 µM, 14 µM, 13 µM and 12.6 µM.
In the same order, the values of `Cc1cccc(NC(P(=O)(O)O)P(=O)(O)O)n1` are 28.2 µM, 28 µM, 12 µM and 12 µM.
On to `CN(C)CCCC(P(=O)(O)O)P(=O)(O)O`, for which the values for the half-maximal inhibitory concentration (IC50) in assay [1] and in assay [2] were 398 µM and 400 µM, respectively.
Consider `CCCCCN(C)CCC(O)(P(=O)(O)O)P(=O)(O)O` [IBANDRONIC ACID], for which the IC50 in assay [1] is 30.9 µM; in assay [2] it was 31 µM; in assay [3] it was 31 µM; in assay [4], 31.6 µM.
With `O=P(O)(O)C(O)(CCc1cccnc1)P(=O)(O)O`, the IC50 in assay [1] is 912 µM; in assay [2] it was 917 µM; in assay [3], 228 µM; in assay [4], 229 µM.
Regarding `CCCCCC(O)(P(=O)(O)O)P(=O)(O)O`, the IC50 was 1620 µM in assay [1], 1610 µM in assay [2], 90 µM in assay [3] and 91.2 µM in assay [4].
Consider `CC(C)CCNC(P(=O)(O)O)P(=O)(O)O` [(ISOPENTYLAMINO)METHYLENEDIPHOSPHONIC ACID], for which the IC50 in assay [1] was 46.8 µM; in assay [2], 47 µM; in assay [3], 40 µM; in assay [4] it was 39.8 µM.
Consider `O=[N+]([O-])c1cccc(CC(O)(P(=O)(O)O)P(=O)(O)O)c1`, for which the IC50 in assay [1] and in assay [2] was 110 µM throughout.
In the case of `CCCCCCC(O)(P(=O)(O)O)P(=O)(O)O`, the IC50 in assay [1] was 2090 µM; in assay [2], 2110 µM; in assay [3], 213 µM; in assay [4], 214 µM.
Take `CN(CCCc1ccccc1)CCC(O)(P(=O)(O)O)P(=O)(O)O`: the IC50 in assay [1] is 120 µM; in assay [2], 121 µM; in assay [3] it was 63 µM; in assay [4], 63.1 µM.
For the compound `CN(C)CCC(O)(P(=O)(O)O)P(=O)(O)O` [OLPADRONIC ACID], the half-maximal inhibitory concentration (IC50) was 112 µM in assay [1], 112 µM in assay [2], 46 µM in assay [3] and 46.8 µM in assay [4].
On to `CCCNC(P(=O)(O)O)P(=O)(O)O` [(PROPYLAMINO)METHYLENEDIPHOSPHONIC ACID], for which the IC50 in assay [1] is 34.7 µM; in assay [2], 35 µM; in assay [3], 18 µM; in assay [4] it was 18.2 µM.
Take `O=P(O)(O)C(O)(C[n+]1cc[nH]c1)P(=O)(O)O`: the IC50 in assay [3] was 5.2 µM; in assay [4], 5.25 µM.
As to `O=P(O)(O)C(CNc1ccccn1)P(=O)(O)O`, the IC50 is 14.5 µM in assay [1], 14 µM in assay [2], 4.8 µM in assay [3] and 4.9 µM in assay [4].
`Cc1cccnc1NC(P(=O)(O)O)P(=O)(O)O`: the IC50 was 4.9 µM in assay [1], 4.9 µM in assay [2], 4.3 µM in assay [3] and 4.37 µM in assay [4].
On to `O=P(O)(O)C(NC1CCCCC1)P(=O)(O)O` [(CYCLOHEXYLAMINO)METHYLENEDIPHOSPHONIC ACID], for which the IC50 in assay [1] is 46.8 µM; in assay [2], 47 µM; in assay [3], 40 µM; in assay [4], 39.8 µM.
In the same order, the values of `O=P(O)(O)C(O)(Cc1ccccc1)P(=O)(O)O` are 2820 µM, 2820 µM, 395 µM and 398 µM.
In the same order, the values of `CN(CCc1ccccc1)CCC(O)(P(=O)(O)O)P(=O)(O)O` are 22.9 µM, 23 µM, 19 µM and 19.5 µM.
Regarding `O=P(O)(O)C(O)(Cc1c[nH]cn1)P(=O)(O)O`, the IC50 in assay [1] was 12 µM; in assay [2], 12 µM; in assay [3] it was 7.8 µM; in assay [4], 7.76 µM.
With `Nc1ccc(CC(O)(P(=O)(O)O)P(=O)(O)O)cc1`, the 50% inhibitory concentration (IC50) is 20000 µM in assay [1], 19900 µM in assay [2], 251 µM in assay [3] and 251 µM in assay [4].
As for `O=P(O)(O)C(N1CCSCC1)P(=O)(O)O` [THIOMORPHOLINOMETHYLENEDIPHOSPHONIC ACID], the IC50 is 603 µM in assay [1], 597 µM in assay [2], 190 µM in assay [3] and 191 µM in assay [4].
For `O=P(O)(O)C(Sc1ccccn1)P(=O)(O)O`, the IC50 was 67.6 µM in assay [1] and 67 µM in assay [2].
In the case of `O=P(O)(O)C(O)(Cc1cnc2ccccn12)P(=O)(O)O` [MINODRONIC ACID], the IC50 was 7.94 µM in assay [1], 8 µM in assay [2], 4.1 µM in assay [3] and 4.07 µM in assay [4].
`CC1CCCCN1C(P(=O)(O)O)P(=O)(O)O` (stereo not given): the IC50 was 2750 µM in assay [1] and 2740 µM in assay [2].
In the same order, the values of `CC1CCCC(C)N1C(P(=O)(O)O)P(=O)(O)O` (stereo not given) are 1660 µM and 1650 µM.
Consider `O=P(O)(O)C(N1CCCCCC1)P(=O)(O)O` [N-(HEXAMETHYLENEIMINO)METHYLENEBISPHOSPHONIC ACID], for which the half-maximal inhibitory concentration (IC50) in assay [1] is 12.9 µM; in assay [2], 13 µM; in assay [3] it was 11 µM; in assay [4] it was 11.2 µM.
Consider `CCN(C1CCCCC1)C(P(=O)(O)O)P(=O)(O)O`, for which the IC50 was 102 µM in assay [1] and 103 µM in assay [2].
In the same order, the values of `O=P(O)(O)C(N1CCCCCCC1)P(=O)(O)O` [N-(HEPTAMETHYLENEIMINO)METHYLENEBISPHOSPHONIC ACID] are 67.6 µM and 68 µM.
Turning to `O=P(O)(O)C(Cc1cccnc1)P(=O)(O)O`, the IC50 in assay [1] is 10.5 µM; in assay [2], 10 µM.
